The record followed here is US20220089646A1 (THE UNIVERSITY OF QUEENSLAND, priority 2019, published 2022).

In one data set the target is T1, trypsin (Bos taurus, UniProt P00760).
T1 sequence (P00760 24-246): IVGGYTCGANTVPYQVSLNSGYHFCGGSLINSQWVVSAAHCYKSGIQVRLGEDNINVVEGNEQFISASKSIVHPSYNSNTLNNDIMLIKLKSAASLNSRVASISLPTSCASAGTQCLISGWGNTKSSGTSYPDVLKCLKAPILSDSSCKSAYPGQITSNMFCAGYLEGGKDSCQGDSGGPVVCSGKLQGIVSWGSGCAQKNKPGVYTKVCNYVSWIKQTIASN
The data set can be described thus: Trypsin stability. It counts as in vitro ADME. The protocol:
(§1) Purified DP-7-11 (1 mg/mL) was dissolved in 0.1 M ammonium bicarbonate (NH4HCO3) buffer. To prepare a stock trypsin solution, 1 mg trypsin was dissolved in 50 mL of 0.1 M NH4HCO3 buffer. Equal volumes of the stock trypsin solution (62.5 μL) and DP-7-11 solution (62.5 μL) were incubated in 375 μL of 0.1M NH4HCO3 buffer in a 37° C. water bath. Aliquots of 100 μL were collected from this mixture at set time intervals of 0 min, up to 24 hours. Ice-cold acetonitrile containing 0.5% TFA was used to quench the reaction between DP-7-11 and trypsin at predetermined intervals, and just prior to HPLC or LC-MS analysis. The quenched samples were vortexed for 10 minutes followed by centrifugation at 12,000 rpm for a further 15 minutes. Supernatant was sampled and analysed using analytical RP-HPLC or LC-MS. Samples without trypsin acted as negative controls and were sampled at two intervals of 0 hour and 6 hours.
(§2) As used in this serum and trypsin stability discussion, the term ‘degraded completely’ relates to the relevant compound being completely absent when tested. In other words, the compound being tested is not observed when tested.
(§3) The serum and trypsin stability of DP-7-11 and DP-7-12 were tested (in some instances again) using LC-MS. The LC-MS utilized in this study was more sensitive than the LC-MS utilized in the above tests.

In the next data set the target is DOP (Homo sapiens, UniProt P41143). The data set can be described thus: Inhibition of Forskolin-induced cAMP production in HEK-DOP cells (AlphaScreen, DP series). The conditions noted are these: for IC50: Forskolin 50 μM/well, 95% CI in brackets; for IC80: approximate IC80, 'EC anything' protocol. It counts as cell-based. The protocol: DP-7-11 and DP-7-12 were assessed for the ability to inhibit cAMP production in HEK-DOP and HEK KOP cells.
The HEK-293 DOP (HEK-DOP) and HEK-293 KOP (HEK-KOP) cell lines were cultured in a T75 flask, in Dulbeco's Modified Eagle's Medium (DMEM) complete with 10% (v/v) fetal bovine serum (FBS) and 1% (v/v) Geneticin. Cells were incubated in a humidified atmosphere of 37° C. (95% air and 5% CO2). Cells were passaged at 80-90% confluence and media was changed every two days.
Stimulation buffer and Lysis buffer were prepared fresh on the day of each assay. Stimulation buffer contained 19.5 mL Hanks buffered saline solution, Bovine serum albumin (BSA) 0.1% (w/v), 0.5 mM 3-Isobutyl-1-methylxanthine (IBMX) and 5 mM HEPES (4-(2-hydroxyethyl)-1-piperazineethanesulfonic acid). Lysis buffer contained 19 mL Mili-Q H2O, BSA 0.1% (w/v), 0.3% (v/v) 10% Tween-20, and 5 mM HEPES. Both buffers were adjusted to pH 7.4 with NaOH.
The cAMP standard dilution series was prepared from the 50 μM cAMP standard solution provided by the cAMP assay kit. The standard solution was vortexed before being serially diluted to provide a concentration range of 5×10^−6 M to 5×10^−11 M in ½ Log intervals.
For this assay, Forskolin was optimised at 50 μM/well. 25 mM stocks were used to prepare 0.2 mM Forskolin. The concentration of Forskolin prepared was 4 times the required concentration in the well to account for further dilution in the well. 0.1 mM Forskolin solution was then made from this and used to dilute the peptide solutions.
DP-7-11 and DP-7-12 provided in powder form and reconstituted to 10 mM stock solutions and diluted to 1 mM working stocks using Mili-Q H2O. Each peptide solution was serially diluted to give concentrations of 1×10^−6 to 3×10^−7 M with stimulation buffer.
Stimulation buffer was added to the 0.2 mM Forskolin solution in a 1:1 ratio to prepare the Forskolin only treatment solution. This was the positive control. Stimulation buffer was used as the negative control.
Cells were harvested from two T75 flasks on the day of experimentation. Identical protocol was used for both DOP and KOP cells. The cells were first removed from the incubator and washed with Versene®. The cells were then incubated in 2 mL of Versene® at 37° C. for 5 minutes. Following this, the mixture was made up to 5 mL with Versene® in a centrifuge tube. This was centrifuged at 1300 rpm for 2 minutes at 23° C. The supernatant was then decanted and the cells resuspended in 100 μL stimulation buffer for counting. A hemocytometer was used to count the cells. This assay required the concentration of cells to be 13300 cells/μL
This method was used to conduct all cAMP Alphascreen assays. The acceptor bead mixture consisted of acceptor beads and stimulation buffer mixed according to the ratio 1:35 given in the kit. From this, the acceptor beads mixture was used to prepare separate mixtures for the cAMP standard curve and for the treatment wells of the assay. For the treatment wells, the beads were mixed with cells in a 1:1 ratio. For the cAMP standard curve, the beads were mixed with more stimulation buffer in a 1:1 ratio. The donor bead mixture consisted of donor beads, biotinylated cAMP and lysis buffer mixed in the ratio 1:3:300.
The DP series compounds were assayed as follows: The assay was performed using a 96 well ½ area plate. The different cAMP standard solutions (3 μL/well) were plated in duplicate. The different concentrations of drug (3 μL/well), and control solutions (3 μL/well) were plated in triplicate. Following this, the acceptor bead mixture (3 μL/well) was added to the respective sets—either cAMP standard curve or the treatment. This was covered and incubated on the orbital shaker for 30 minutes at room temperature. Then, the donor bead mixture (10 μL/well) was added to each well. This was incubated at room temperature overnight on the orbital shaker. […]
Background: cAMP levels reflect the balance of adenylyl cyclase and phosphodiesterase activity.

Another data set is described as follows: Serum stability. The class given is in vitro ADME. The conditions noted are these: rat. On the procedure:
as §1
Serum stability of DP-7-11 was also performed. In this regard, rat serum replaced trypsin and NH4HCO3 buffer. Water was used as negative control in place of serum, with the stability study performed in an identical fashion to the trypsin study. […] DP-11-00 and DP-11-06 were tested in a similar manner.
as §2
This appears to indicate the improved metabolic stability of the present invention.
as §3

Setting [1] is: concentration-response curve, % cAMP.

Each structure is given as a SMILES string. Like-named read-outs stand apart in the source and are kept apart here. *1 amine or outer side, *2 acyl side, *3 side chain or, on linkers, in order; H or OH if unused. Where a SMILES comes first, the peptide text is derived from it. Bridges are numbered along the chain shown (N, C = ends). [ ]: non-standard residue; d: D form. NHCH2CMe2S = CC(C)(CN[*:1])S[*:2] A value given as a limit tells only on which side of the number the result lay.

DOP, sequence (P41143 whole entry): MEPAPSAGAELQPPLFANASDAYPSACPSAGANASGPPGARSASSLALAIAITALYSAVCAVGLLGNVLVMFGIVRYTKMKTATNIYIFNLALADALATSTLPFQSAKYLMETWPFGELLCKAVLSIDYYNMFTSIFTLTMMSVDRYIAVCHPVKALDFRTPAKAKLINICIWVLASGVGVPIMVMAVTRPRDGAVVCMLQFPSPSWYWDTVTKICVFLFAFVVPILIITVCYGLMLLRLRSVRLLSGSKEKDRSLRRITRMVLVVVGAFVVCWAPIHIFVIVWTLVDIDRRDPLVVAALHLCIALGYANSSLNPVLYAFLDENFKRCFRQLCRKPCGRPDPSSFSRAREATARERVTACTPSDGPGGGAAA

In general, IC50 refers to the point on the concentration scale where inhibition reaches its midpoint. A higher IC50 goes with lower potency. As a reminder, the IC80 is the point of the concentration-response curve where the effect stands at 80%. In general, half-life refers to the time in which the quantity being followed falls by half. In the case of `CC1(C)CNC(=O)C[C@H](C(=O)N[C@@H](CCCNC(=N)N)C(=O)N[C@@H](CCCNC(=N)N)C(N)=O)NC(=O)[C@H](Cc2ccccc2)NC(=O)CNC(=O)[C@@H](NC(=O)[C@@H](N)Cc2ccc(O)cc2)CSS1` [DP-7-11, c(Tyr-SSa-Gly-Phe-D(Asp)-Arg-Arg)], on trypsin (at 30 min, more sensitive LC-MS), the “Incubation in trypsin: peptide remaining” value came out at 25% remaining at. For the same compound, the remaining at 0.5 h, 0.125 mg/mL on trypsin (trypsin solution, at 30 min, more sensitive LC-MS, read-out: Incubation in trypsin: peptide remaining) was around 25%. Moreover, at DOP, inhibition was half-maximal at 1.83 nM (IC50) and the IC80 came out at 24.1 nM. Further, at DOP (setting [1]), the “Maximum cAMP response, HEK-DOP” value is listed as 93.79% and the “Minimum cAMP response, HEK-DOP” value is on record as 23.13%. Further, the half-life at 0.125 mg/mL in the data set “Serum stability” (37° C., LC-MS (Table 8), read-out: Serum half-life (converted)) is 6 h. In addition, the half-life at 0.125 mg/mL in the data set “Serum stability” (more sensitive LC-MS (Table 8a), read-out: Incubation in serum: half life) was above 6 h. For the same compound, the metabolised at 6 h, 0.125 mg/mL in “Serum stability” (up to 6 h, more sensitive LC-MS, read-out: Degradation in serum) is around 10%.

As to `CC1(C)CNC(=O)C[C@@H](NC(=O)[C@@H](N)Cc2ccc(O)cc2)C(=O)NCC(=O)N[C@@H](Cc2ccccc2)C(=O)N[C@H](C(=O)N[C@@H](CCCNC(=N)N)C(=O)N[C@@H](CCCNC(=N)N)C(N)=O)CSS1` [DP-7-12, c(Tyr-D(Asp)-Gly-Phe-SSa-Arg-Arg)] (H-Y[dD]GFCRR-NH2; linker 2-5 via NHCH2CMe2S), the “Trypsin: complete degradation within” value on trypsin (37° C.) is recorded as “within 30 min”. At DOP, the concentration for half-maximal inhibition (IC50) amounted to 0.608 nM and the IC80 was 2.72 nM. For the same compound, the “Potency at DOP relative to KOP” value at DOP (cAMP IC50 DOP vs KOP) is given as “ten times”. Besides, the “Maximum cAMP response, HEK-DOP” value on DOP (setting [1]) turned out to be 14.03%. Moreover, the remaining at 1 h, 0.125 mg/mL in “Serum stability” (after 1 hr, read-out: Peptide still present in serum) is around 67%. Besides, the remaining at 2 h, 0.125 mg/mL in “Serum stability” (after 2 hours, read-out: Peptide still present in serum) is around 20%. In addition, the half-life at 0.125 mg/mL in “Serum stability” (more sensitive LC-MS (Table 8a), read-out: Incubation in serum: half-life) is around 0.75 h.
